This is an account of results in patent US20070227399A1, “COMPOSITIONS AND METHODS FOR THE PRESERVATION OF WOOD” (Novus International Inc., priority 2006, published 2007).

Assay [1] relates to Postia placenta (Madison 698). The assay can be described thus: AWPA E10-01 laboratory soil-block culture decay test of treated southern pine blocks. The following applies: for Mean percent weight loss (s.d. in parentheses), P. placenta: unleached southern pine blocks, 12 weeks, n = 5. It counts as cell-based. The protocol:
(§1) The decay resistance of southern pine treated with six experimental wood preservative formulations and exposed to two brown rot fungal species were tested using the AWPA E10-01 “Standard Method of Testing Wood Preservatives by Laboratory Soil-Block Cultures.” For this, conditioned blocks of wood are treated with suitable solutions of preservative. After a conditioning period, the wood blocks are exposed to a recognized destructive species of wood-destroying fungi. The minimum amount of preservative that protects the wood blocks against decay by a given fungus is defined as the threshold retention for that organism. Failure to protect is evidenced by loss of mass from the treated wood blocks, as indicated by a loss of weight.
(§2) Preparation of wood. Southern pine sapwood (Pinus spp.) with 6-10 rings/inch and clear of knots or other obvious defects was used. The wood was milled into test blocks of 19 mm×19 mm×19 mm. The test cubes were divided into density groups of ±5%, with 5 blocks per treatment or control. One feeder strip is needed for each block in a culture bottle. The sapwood selected for feeder strips should be capable of furnishing a satisfactory growth of the test fungus. Southern pine sapwood feeder strips were cut to approximately 3 by 28 by 34 mm with the grain of the wood parallel to either of the long dimensions and with the edge grain (radial surface) exposed to the flat face, insofar as possible.
(§3) The test blocks were pressure treated with the test preservatives, solvent alone, or two control wood preservatives, ACQ-Type D and propiconazole […] according to procedures detailed in AWPA Standard E7-01. Several of the compounds detailed in Table 1 are commercially available from Novus International, Saint Louis, Mo. (i.e., the composition abbreviated Biox AUSD is a blend of organic acid, inorganic acid and HMTBA and is sold under the trade name ACTIVATE® US WD; the compound abbreviated Biox C is HMBTA-Cu and is sold under the trade name MINTREX® Cu; the compound Biox C/Biox SE is a blend of ethoxyquin and HMTBA-Cu; the compound abbreviated Biox SE is ethoxyquin emulsion; the compound abbreviated Biox T is an antioxidant blend sold under the trade name TOXGUARD®, and the compound abbreviated Biox Z is HMTBA-Zn is sold under the trade name MINTREX® Zn).
(§4) Briefly, a full cell pressure process, simulating commercial practice as far as possible with laboratory plant equipment, using an initial vacuum, suitable temperature, and an appropriate pressure period was used. The amount of preservative absorbed by the block, i.e., the retention, was calculated for each preservative. After the test blocks were treated and weighed to obtain absorption, they were exposed to open laboratory conditions until the solvent evaporated and the moisture content was relatively stable. Then they were placed in a conditioning room for 21 days. The blocks were tested in the unleached condition.
(§5) Preparation of soil culture bottles. A soil substrate with a water holding capacity between 20% and 40% and a pH between 5.0 and 8.0 was used. The soil substrate, sifted and lightly compacted by tapping, was placed in 8-oz cylindrical culture bottles fitted with screw caps without liners. The bottles were about half-full. This amount of soil, about 118 ml for an 8-oz. culture bottle, weighed not less than 90 g when oven-dried. […] The soil was leveled and one feeder strip per block was placed in each bottle. The soil-filled bottles were autoclaved for 30 min (one time), with the caps loosened. Lids on jars with a breather hole were covered with a strip of cloth first-aid tape.
(§6) Preparation of test cultures. […] Sections (e.g., 10 mm squares) were cut from near the leading edge of mycelium in petri dish cultures and placed in contact with an edge of a feeder strip on the soil of the culture bottles.

Assay [2] deals with Gloeophyllum trabeum (ATCC 11539). Described as above. It counts as cell-based. The following applies: for Mean percent weight loss (s.d. in parentheses), G. trabeum: unleached southern pine blocks, 12 weeks, n = 5. The protocol:
as §1, §2, §3, §4, §5, §6

Where [3] appears, read: over all Biox C retentions, ethanolamine retention 36 kg/m^3, no observable dose response.

Consider `CSCCC(O)C(=O)[O-].CSCCC(O)C(=O)[O-].[Cu+2]` (centres unmarked) [Biox C, copper bis(2-hydroxy-4-methylthio)butanoic acid], for which the “weight losses, P. placenta” value in assay [1] (setting [3]) is given as approximately 5.0%. Further, the “Mean percent weight loss (s.d. in parentheses), P. placenta” value (“Mean percent weight loss … P. placenta” below) in assay [1] (retention 0.05 kg/m^3) was 4.5 (0.8) %; in assay [1] (retention 0.10 kg/m^3) it was 5.0 (1.0) %; in assay [1] (retention 0.50 kg/m^3) it was 6.1 (0.4) %; in assay [1] (retention 2.00 kg/m^3), 5.1 (0.7) %. The “weight losses, G. trabeum” value in assay [2] (setting [3]) is listed as “approximately 6.5%”. For the same molecule, the “Mean percent weight loss (s.d. in parentheses), G. trabeum” value (“Mean percent weight loss … G. trabeum” below) in assay [2] (retention 0.05 kg/m^3) is listed as 5.5 (0.7) %; in assay [2] (retention 0.10 kg/m^3), 6.9 (1.8) %; in assay [2] (retention 0.50 kg/m^3), 6.1 (0.7) %; in assay [2] (retention 2.00 kg/m^3) it was 10.2 (5.3) %.
Regarding `CC(C)(C)C(O)(CCc1ccc(Cl)cc1)Cn1cncn1` (centres unmarked) [Tebuconazole, reference compound], the “Mean percent weight loss … P. placenta” value in assay [1] (retention 0.010 kg/m^3) is given as 24.9 (21.8) %; in assay [1] (retention 0.025 kg/m^3), 22.4 (17.4) %; in assay [1] (retention 0.05 kg/m^3) it was 15.5 (13.6) %; in assay [1] (retention 0.10 kg/m^3), 2.8 (3.1) %. Further, the “Mean percent weight loss … G. trabeum” value in assay [2] (retention 0.010 kg/m^3) was 15.5 (3.7) %; in assay [2] (retention 0.025 kg/m^3), 11.8 (8.3) %; in assay [2] (retention 0.05 kg/m^3), 3.2 (1.3) %; in assay [2] (retention 0.10 kg/m^3), 1.0 (0.4) %.
In the case of `CSCCC(O)C(=O)[O-].CSCCC(O)C(=O)[O-].[Zn+2]` (centres unmarked) [Biox Z], the “Mean percent weight loss … P. placenta” value in assay [1] (retention 0.05 kg/m^3) is 50.4 (2.9) %; in assay [1] (retention 0.10 kg/m^3) it was 47.7 (5.1) %; in assay [1] (retention 0.50 kg/m^3), 42.6 (23.8) %; in assay [1] (retention 2.00 kg/m^3), 26.1 (23.2) %. Also, the “Mean percent weight loss … G. trabeum” value in assay [2] (retention 0.05 kg/m^3) is on record as 38.8 (3.3) %; in assay [2] (retention 0.10 kg/m^3), 26.4 (8.5) %; in assay [2] (retention 0.50 kg/m^3), 28.9 (15.2) %; in assay [2] (retention 2.00 kg/m^3), 27.8 (6.1) %.
